The record followed here is publication PMC10619479, “Multicomponent synthesis of pyrido[2,3-b]pyrazine derivatives: electrochemical DNA sensing, nonlinear optical properties and biological activity” (RSC Advances, 2023).

Assay [1] concerns the target T1, Jack Bean Urease (Canavalia ensiformis, UniProt P07374). Kind of assay: biochemical. More on the design: Jack bean urease inhibition, ammonia release by indophenol method, absorbance at 625 nm. On the procedure: The enzyme responsible for catalyzing urea, known as urease, helps for the conversion of urea into carbon dioxide (CO2) through hydrolysis. To monitor the production of ammonia (NH3) and inhibit urease activity, we employed the indophenol method.[42] In the reaction mixture, consisting of Jack Bean Urease (200 μL), a buffer with a pH of 8.25 (400 μL, composed of 0.5 mM EDTA, 0.02 M K2HPO4, 0.02 M LiCl, and 120 mM urea), and test compounds (100 μL), incubation was carried out at 25 °C for approximately 30 minutes. […] In the realm of scientific investigation, thiourea functions as a benchmark inhibitor. The determination of the IC50 values entails subjecting both standard and synthesized compounds to varying concentrations under identical experimental conditions.[43,44] […] Thiourea was used as a reference point to assess the effects of substituents about the pyrido[2,3-b]pyrazine based scaffold on their urease inhibitory potential.

Assay [2] has as its target T1, Jack Bean Urease. Kind of assay: indophenol urease inhibition assay (ammonia release, […] nm). It is filed as biochemical. From the text:
The determination of the IC50 values entails subjecting both standard and synthesized compounds

T1 sequence (P07374 whole entry): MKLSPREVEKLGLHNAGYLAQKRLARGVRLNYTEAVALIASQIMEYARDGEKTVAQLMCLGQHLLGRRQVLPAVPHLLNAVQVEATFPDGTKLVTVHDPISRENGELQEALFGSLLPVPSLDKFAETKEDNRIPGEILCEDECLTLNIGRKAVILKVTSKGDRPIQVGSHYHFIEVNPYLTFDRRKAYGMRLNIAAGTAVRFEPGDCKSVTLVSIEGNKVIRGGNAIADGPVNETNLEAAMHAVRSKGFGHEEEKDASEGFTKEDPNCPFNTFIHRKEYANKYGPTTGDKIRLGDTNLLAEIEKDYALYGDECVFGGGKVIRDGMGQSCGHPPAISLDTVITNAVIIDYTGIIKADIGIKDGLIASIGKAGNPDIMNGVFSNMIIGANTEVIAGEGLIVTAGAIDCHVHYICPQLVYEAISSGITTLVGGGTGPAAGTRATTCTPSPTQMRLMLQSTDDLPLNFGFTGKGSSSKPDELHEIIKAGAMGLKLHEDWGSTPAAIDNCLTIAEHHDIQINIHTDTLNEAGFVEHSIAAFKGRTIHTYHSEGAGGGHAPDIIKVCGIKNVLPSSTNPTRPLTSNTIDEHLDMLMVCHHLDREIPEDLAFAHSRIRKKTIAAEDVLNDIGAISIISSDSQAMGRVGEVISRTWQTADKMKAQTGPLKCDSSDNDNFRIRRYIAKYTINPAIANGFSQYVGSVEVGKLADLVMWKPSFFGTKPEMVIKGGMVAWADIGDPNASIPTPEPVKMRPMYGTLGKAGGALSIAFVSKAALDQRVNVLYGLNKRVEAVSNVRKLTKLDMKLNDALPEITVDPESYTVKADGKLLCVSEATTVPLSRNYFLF

One may read the IC50 as the concentration at which inhibition is half-maximal. Low readings indicate greater potency, high ones weaker potency. With `O=Cc1ccc(C2C3=C(Nc4nccnc42)c2ccccc2C3=O)cc1` (centres unmarked) [compound 4], on Jack Bean Urease [1], the IC50 was determined as 6.79 ± 0.92 µM.

The compound `O=C1C2=C(Nc3nccnc3C2c2ccc(Cl)cc2)c2ccccc21` (centres unmarked) [compound 5] displayed an IC50 at Jack Bean Urease [2] of 4.12 ± 1.18 µM.

Turning to `O=C1C2=C(Nc3nccnc3C2c2ccc([N+](=O)[O-])cc2)c2ccccc21` (centres unmarked) [compound 6], 4.77 ± 0.92 µM corresponded to half-maximal inhibition on Jack Bean Urease [1] (IC50).

`COc1ccc(C2C3=C(Nc4nccnc42)c2ccccc2C3=O)cc1` (centres unmarked) [compound 7] had an IC50 at Jack Bean Urease [1] of 11.9 ± 0.34 µM.

At Jack Bean Urease [1], `NC(N)=S` [thiourea] displayed an IC50 of 1.94 ± 0.36 µM.
